According to patent publication US3991202A, “Imidazolium salts” (Janssen Pharmaceutica N.V., priority 1974, dated 1976):
Like-named read-outs stand apart in the source and are kept apart here.

Columns and labels:
Assay type in all cases: cell-based
Microsporum canis = assay: Antifungal growth inhibition in Sabouraud's liquid medium; details: Microsporum canis, 336 h, M.c., read-out: Concentrations in μg/ml for 100% Inhibition of Growth
Protocol: (§1) Tests for the control of fungal organisms were performed using Sabouraud's liquid medium (1 g. of neopeptone Difco and 2 g. of glucose Difco per 100 ml. distilled water) in test tubes, each containing 4.5 ml. of liquid medium, autoclaved at 120° C for 15 minutes. The imidazolium salts were prepared for testing by dissolving in 50% ethanol to a concentration of 20 mg./ml. and thereafter diluting with sterile distilled water to obtain a concentration of 10 mg./ml. Successive decimal dilutions were then made with sterile distilled water to prepare a series of test solutions. In carrying out the test, 0.5 ml. of one of the test solutions is added to 4.5 ml. of Sabouraud's liquid medium to obtain a test medium. In this manner, from appropriate test solution, test media containing 100 μg, 10 μg and 1 μg of imidazolium salt per milliliter of medium were obtained.
(§2) Control tubes were prepared by adding 0.5 ml. of sterile distilled water to 4.5 ml. of medium. Ethanol was also added to simulate the amount which would be present in the test media. Filamentous fungi were incubated at 25° C for two to three weeks. A square block of side 2 mm. was excised and inoculated into the liquid medium. A 3-day old culture on Sabouraud's liquid medium was used for yeasts. The inoculum was 0.05 ml. per tube. All cultures were incubated at 25° C for 14 days.

[1] = test system: Ctenomyces mentagrophytes; assay: as above; details: Trichophyton mentagrophytes, 336 h; Ct.m.; tested at 100, 10, 1 μg/ml; read-out: Concentrations in μg/ml for 100% Inhibition of Growth
Protocol: as §1, §2

Cryptococcus neoformans = assay: as above; details: Cryptococcus neoformans, 336 h; Cr.n.; tested at 100, 10, 1 μg/ml; read-out: Concentrations in μg/ml for 100% Inhibition of Growth
Protocol: as §1, §2

Trichophyton rubrum = assay: as above; details: Trichophyton rubrum, 336 h; Tr.r.; tested at 100, 10, 1 μg/ml; read-out: Concentrations in μg/ml for 100% Inhibition of Growth
Protocol: as §1, §2

Escherichia coli = assay: Antibacterial growth inhibition in phenol red dextrose broth; details: 168 h, E. coli, tested at 100, 10, 1 μg/ml, read-out: Concentration in μ g for 100% Growth Inhibition
Protocol: (§3) The tests on bacteria were performed on cultures on phenol red dextrose broth medium (Difco). By using decimal dilution techniques described for the tests for antifungal activity, test media containing 100 μg, 10 μg and 1 μg of imidazolium salt per milliliter of medium were obtained. The inoculum consisted of a platinum loop (5 mm diameter) from a 24 hour broth culture. Forty-eight hours after incubation, subcultures were made from each culture for the determination of antibacterial activity of the imidazolium salts. After seven days of incubation, observations were made to determine the presence or absence of bacterial growth.

[2] = test system: Salmonella pullorum gallinarum; assay: as above; details: Salmonella enterica, 168 h; Sp. G.; tested at 100, 10, 1 μg/ml; read-out: Concentration in μ g for 100% Growth Inhibition
Protocol: as §3

Streptococcus pyogenes = assay: as above; details: 168 h, Strep., tested at 100, 10, 1 μg/ml, read-out: Concentration in μ g for 100% Growth Inhibition
Protocol: as §3

Erysipelothrix insidiosa = assay: as above; details: Erysipelothrix rhusiopathiae, 168 h; E. ins.; tested at 100, 10, 1 μg/ml; read-out: Concentration in μ g for 100% Growth Inhibition
Protocol: as §3

[3] = test system: Staphylococcus hemolyticus; assay: as above; details: 168 h, Staph., tested at 100, 10, 1 μg/ml, read-out: Concentration in μ g for 100% Growth Inhibition
Protocol: as §3

Pseudomonas aeruginosa = assay: as above; details: 168 h, Ps. aer., tested at 100, 10, 1 μg/ml, read-out: Concentration in μ g for 100% Growth Inhibition
Protocol: as §3

SMILES	MIC (Microsporum canis; tested at 100, 10, 1 μg/ml) [µg/mL]	MIC [1] [µg/mL]	MIC (Cryptococcus neoformans) [µg/mL]	MIC (Trichophyton rubrum) [µg/mL]	MIC (Escherichia coli) [µg/mL]	MIC [2] [µg/mL]	MIC (Streptococcus pyogenes) [µg/mL]	MIC (Erysipelothrix insidiosa) [µg/mL]	MIC [3] [µg/mL]	MIC (Pseudomonas aeruginosa) [µg/mL]	MIC (Microsporum canis; growth observed at 100 μg/ml) [µg/mL]
Cc1ccc(OCC[n+]2ccn(CC(OCc3ccc(Cl)cc3Cl)c3ccc(Cl)cc3Cl)c2)cc1 (stereo not drawn) [(CH2)2OC6H4pCH3, 1-[2,4-dichloro-β-(2,4-dichlorobenzyloxy)phenethyl]-3-[2-(p-tolyoxy)ethyl]imidazolium bromide]	10	10	10	1	10	10	1	1	1	100	–
Clc1ccc(COC(Cn2cc[n+](CCOc3ccccc3)c2)c2ccc(Cl)cc2Cl)c(Cl)c1.[Br-] (stereo not drawn) [(CH2)2OC6H5, 1-[2,4-dichloro-β-(2,4-dichlorobenzyloxy)phenethyl]-3-(2-phenoxyethyl)imidazolium bromide]	10	10	10	1	10	10	1	1	1	100	–
Cc1ccc(C[n+]2ccn(CC(OCc3ccc(Cl)cc3Cl)c3ccc(Cl)cc3Cl)c2)cc1C.[Cl-] (stereo not drawn) [CH2C6H33,4(CH3)2, 1-[2,4-Dichloro-β-(2,4-dichlorobenzyloxy)phenethyl]-3-(3,4-dimethylbenzyl)imidazolium chloride]	10	1	10	1	10	10	1	1	1	100	–
OC(C[n+]1ccn(CC(OCc2ccc(Cl)cc2Cl)c2ccc(Cl)cc2Cl)c1)c1ccc(Cl)cc1Cl.[Cl-] (stereo not drawn) [CH2CHOHC6H32,4(Cl)2, 1-[2,4-dichloro-β-(2,4-dichlorobenzyloxy)phenethyl]-3-(2,4dichloro-β-hydroxyphenethyl)imidazolium chloride]	1	1	10	1	10	10	1	1	1	100	–
O=C(C[n+]1ccn(CC(OCc2ccc(Cl)cc2Cl)c2ccc(Cl)cc2Cl)c1)c1ccc(F)cc1.[Cl-] (stereo not drawn) [CH2COC6H4pF, 1-[2,4-dichloro-β-(2,4-dichlorobenzyloxy)phenethyl]-3-(p-fluorobenzoylmethyl)-imidazolium chloride]	1	1	10	1	10	10	1	1	1	100	–
Cc1ccccc1NC(=O)C[n+]1ccn(CC(OCc2ccc(Cl)cc2Cl)c2ccc(Cl)cc2Cl)c1 (stereo not drawn) [CH2CONHC6H4oCH3, 1-[2,4-Dichloro-β-(2,4-dichlorobenzyloxy)phenethyl]-3-(N-o-tolylcarbamoylmethyl)imidazolium chloride]	10	1	1	1	10	10	1	1	1	100	–
O=C(C[n+]1ccn(CC(OCc2ccc(Cl)cc2Cl)c2ccc(Cl)cc2Cl)c1)Nc1ccc(Cl)cc1Cl (stereo not drawn) [CH2CONHC6H32,4(Cl)2, 1-[2,4-dichloro-β-(2,4-dichlorobenzyloxy)phenethyl]-3-[N-(2,4-dichlorophenyl)carbamoylmethyl]imidazolium chloride hydrate]	10	10	1	10	10	10	1	1	1	100	–
O=C(C[n+]1ccn(CC(OCc2ccc(Cl)cc2)c2ccc(Cl)cc2)c1)Nc1ccc(F)cc1 (stereo not drawn) [pClC6H4/CH2C6H4pCl/CH2CONHC6H4pF, 1-[p-Chloro-β-(p-chlorobenzyloxy)phenethyl]-3-[N-(p-fluorophenyl)carbamoylmethyl]imidazolium chloride]	–	1	100	10	100	10	1	10	10	100	> 100
